In patent US10780081B2, “Method of treating multiple sclerosis employing a LSD1-inhibitor” (ORYZON GENOMICS, S.A., priority 2016, dated 2020):

Tests used:
Human recombinant MAO-A = molecular target: T1, Human recombinant MAO-A (Homo sapiens, UniProt P21397); assay: MAO-A kynuramine fluorescence assay; assay type: biochemical
T1 construct: purchased Sigma Aldrich
T1 sequence (P21397 1-527): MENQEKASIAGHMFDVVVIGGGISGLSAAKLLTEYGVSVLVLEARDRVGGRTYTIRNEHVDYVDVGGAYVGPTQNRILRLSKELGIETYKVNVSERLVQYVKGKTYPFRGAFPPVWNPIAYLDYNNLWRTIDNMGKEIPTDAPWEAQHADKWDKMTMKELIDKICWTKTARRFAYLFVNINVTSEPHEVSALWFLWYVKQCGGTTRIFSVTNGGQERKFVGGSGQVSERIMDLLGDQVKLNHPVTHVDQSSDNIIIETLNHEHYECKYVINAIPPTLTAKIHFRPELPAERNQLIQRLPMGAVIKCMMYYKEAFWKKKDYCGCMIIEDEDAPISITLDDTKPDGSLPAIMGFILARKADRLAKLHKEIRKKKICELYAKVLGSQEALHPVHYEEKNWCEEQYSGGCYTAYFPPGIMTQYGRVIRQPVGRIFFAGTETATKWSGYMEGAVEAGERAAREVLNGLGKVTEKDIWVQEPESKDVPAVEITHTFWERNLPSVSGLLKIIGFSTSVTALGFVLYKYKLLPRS
Description: Human recombinant monoamine oxidase proteins MAO-A and MAO-B were purchased from Sigma Aldrich. MAOs catalyze the oxidative deamination of primary, secondary and tertiary amines. In order to monitor MAO enzymatic activities and/or their inhibition rate by inhibitor(s) of interest, a fluorescence-based (inhibitor)-screening assay was set up. 3-(2-Aminophenyl)-3-oxopropanamine (kynuramine dihydrobromide, Sigma Aldrich), a non fluorescent compound was chosen as a substrate. Kynuramine is a non-specific substrate for both MAO-A and MAO-B activities. While undergoing oxidative deamination by MAO activities, kynuramine is converted into 4-hydroxyquinoline (4-HQ), a resulting fluorescent product.
The monoamine oxidase activity was estimated by measuring the conversion of kynuramine into 4-hydroxyquinoline. […]
After leaving the enzyme(s) interacting with the inhibitor, KM of kynuramine was added to each reaction for MAO-B and MAO-A assay respectively, and the reaction was left for 1 hour at 37° C. in the dark. […] The conversion of kynuramine to 4-hydroxyquinoline, was monitored by fluorescence (excitation at 320 nm, emission at 360 nm) using a microplate reader (Infinite 200, Tecan). Arbitrary units were used to measure levels of fluorescence produced in the absence and/or in the presence of inhibitor.
The IC50 values of each inhibitor were calculated with GraphPad Prism Software.

[1] = test system: demyelination and inflammatory cell infiltration in spinal cord; assay: Histopathological analysis of spinal cord in EAE mice (Kluver-Barrera); assay type: in vivo, C57BL/6 mice; conditions: 0.5 mg/kg p.o., day 26 postimmunization
Description: (§1) Mice were scored daily for signs of EAE, using the scores described in Example 3.1. Animals were sacrificed on day 26 postimmunization and samples were collected and processed as described below. n=10 mice/group.
(§2) Tissue collection and cell isolation. On day 26 postimmunization, spleen, draining lymph nodes (DLNs: cervicals, inguinals and axillaries), and spinal cord were removed. Spinal segments of the cervical and lumbar regions were prepared separately and processed for protein extraction, and histopathological analysis. Single-cell suspensions were obtained from spleen or pooled lymph nodes, the samples were homogenized and total number of cells was quantified using Neubauer chamber.
Processing of samples for histopathological analysis. Cervical and lumbar spinal cord segments were divided and processed for inclusion and sectioning in paraffin. Spinal cord segments were immediately fixed with buffered 10% formalin for 48h, dehydrated and included in paraffin using standard techniques. Transversal sections (4-μm thickness) were stained with Luxol fast blue, cresyl violet, and hematoxylin following the Klüver-Barrera technique and were analyzed for the presence of areas of demyelination and cell infiltration using a light microscope (Leica, DM2000).

[2] = test system: immune cells in spleen and lymph nodes; assay: Number of immune cells in spleen and lymph nodes of EAE mice; assay type: in vivo, C57BL/6 mice; conditions: 0.5 mg/kg p.o., day 26 postimmunization, vs vehicle
Description: as §1, §2
(§3) Statistical Analysis: Cell number analysis in lymph nodes and spleen: statistical differences are indicated as ***p<0.001 vs vehicle using ANOVA test. Cytokine/chemokine level analysis: statistical differences are indicated as: *p<0.05, **p<0.005, using Mann-Whitney test; unpaired t-test was used for IP-10 level analysis.

[3] = Tolerability at therapeutic doses; assay type: in vivo
[4] = test system: IL-4, IL-6, IL-1beta, IP-10, MCP-1 in spinal cord; assay: Cytokine/chemokine levels in spinal cord of EAE mice by ELISA; assay type: in vivo, C57BL/6 mice; conditions: 0.5 mg/kg p.o., day 26, vs vehicle
Description: as §1
Protein extraction and cytokine/chemokine analysis. Proteins were extracted from cervical and lumbar segments of spinal cord by homogenization (50 mg tissue/[…]) in lysis buffer (50 mM Tris-HCl, pH 7.4, 0.5 mM DTT, and 10 μg/ml proteinase inhibitors PMSF, pepstatin, and leupeptin). Samples were centrifuged (20.000×g, 15 min, 4° C.) and the supernatants were assayed for protein concentration (using Bradford method) and for cytokine/chemokine contents by using specific sandwich ELISAs for IL-4, IL-6, IL-1beta, IP-10 and MCP-1, according to manufacturer's recommendations, using the following antibodies and recombinant proteins:
as §3

[5] = test system: Experimental Autoimmune Encephalomyelitis (EAE); assay: Experimental autoimmune encephalomyelitis (EAE) model, MOG35-55, daily clinical score; assay type: in vivo, C57BL/6 mice
Description: To induce chronic EAE by active immunization, C57BL/6 mice were immunized s.c. with 100 μg of myelin oligodendrocyte glycoprotein MOG35-55 emulsified in complete Freund's adjuvant (CFA) containing 4 mg/ml Mycobacterium tuberculosis H37 RA. Mice also received i.p. injections of 200 ng of pertussis toxin on days 0 and 2.
Mice were scored daily for signs of EAE according to the following clinical scoring system: 0, no clinical signs; 0.5, partial loss of tail tonicity; 1, complete loss of tail tonicity; 2, flaccid tail and abnormal gait; 3, hind leg paralysis; 4, hind leg paralysis with hind body paresis; 5, hind and fore leg paralysis; and 6, death.
Control mice were orally treated with vehicle [2% v/v Tween-80+98% HPβCD (13% w/v)] following the same regime of administration. Mice were scored daily for signs of EAE according to clinical scoring system described in Example 3.1. n=10 mice/group. […]. […] Mice were scored daily for signs of EAE, using the scores described in Example 3.1. Animals were sacrificed on day 26 postimmunization and samples were collected and processed as described below. n=10 mice/group.

Human recombinant LSD1 = molecular target: T2, Human recombinant LSD1 (Homo sapiens, UniProt O60341); assay: LSD1 in vitro biochemical assay (Amplex Red, di-methylated H3-K4 peptide); conditions: read-out: IC50 against LSD1
T2 construct: amino acids 158-end with N-terminal GST tag; GST (N); purchased BPS Bioscience Inc 50100
Description: In order to monitor LSD1 enzymatic activity and/or its inhibition rate by a test compound, di-methylated H3-K4 peptide (Anaspec) was chosen as a substrate. The demethylase activity was estimated, under aerobic conditions, by measuring the release of H2O2 produced during the catalytic process, using the Amplex® Red hydrogen peroxide/peroxidase assay kit (Invitrogen).
Tranylcypromine (Biomol International) was used as a control for inhibition. Within the experiment, each concentration of inhibitor was tested in duplicate. After leaving the enzyme interacting with the inhibitor, KM of di-methylated H3-K4 peptide was added to each reaction and the experiment was left for 30 minutes at 37° C. in the dark. The enzymatic reactions were set up in a 50 mM sodium phosphate, pH 7.4 buffer. […] The conversion of the Amplex® Red reagent to resorufin due to the presence of H2O2 in the assay, was monitored by fluorescence (excitation at 540 nm, emission at 590 nm) using a microplate reader (Infinite 200, Tecan). […] The maximum demethylase activity of LSD1 was obtained in the absence of inhibitor and corrected for background fluorescence in the absence of LSD1. The IC50 value of each inhibitor was calculated with GraphPad Prism Software.

SMILES | IC50 (Human recombinant MAO-A) [nM] | Inflammatory cell infiltration and demyelination areas in cervical and lumbar spinal cord [1] | Mean number of demyelination plaques in cervical and lumbar spinal cord [1] | Number of immune cells retained in spleen and lymph nodes [2] | Tolerability on long-term treatment ([3]; 0.5 mg/kg p.o., mice) | Effects on hematology or circulating lymphocyte counts, gastro-intestinal toxicity ([3]; at therapeutically effective doses, no method or species printed) | IL-1 beta level in spinal cord [4] | IL-4 level in spinal cord [4] | IL-6 level in spinal cord [4] | IP-10 level in spinal cord [4] | MCP-1 level in spinal cord [4] | Development of EAE, disease incidence and severity by daily clinical score ([5]; 0.5 mg/kg p.o., Example 4) | Development of EAE, disease incidence and severity by daily clinical score ([5]; 1 or 3 mg/kg p.o., days 12-16 and 19-23 postimmunization) | Mice displaying mild symptoms ([5]; 1 or 3 mg/kg p.o., therapeutic regime) | Mice almost completely recovered ([5]; 1 or 3 mg/kg p.o., 40 days after disease onset) [%] | Dose at which clinical score in EAE is reduced (as low as) ([5]; p.o., tested at 1, 0.5 and 0.05 mg/kg) [mg/kg] | IC50 (Human recombinant LSD1) [nM] | Effect on EAE clinical score ([5]; 0.06 and 0.180 mg/kg p.o., same scheme as Example 3.1)
Nc1nnc(CN[C@@H]2C[C@H]2c2ccc(OCc3ccccc3)cc2)o1 (single isomer, unassigned) [Compound 1, (−) 5-((((trans)-2-(4-(benzyloxy)phenyl)cyclopropyl)amino)methyl)-1,3,4-oxadiazol-2-amine] | 5300 | no inflammatory cell infiltration nor demyelination areas were observed | absent or greatly reduced demyelination | significant increase | well-tolerated | do not produce clinically relevant effects on hematology or circulating lymphocyte counts | reduced | significantly increased | reduced | significantly reduced | significantly reduced | greatly inhibited the development of EAE | greatly inhibited the development of EAE | 40-70% | 30 | ≤ 0.05 | 90 | 
Fc1ccccc1[C@@H]1C[C@H]1NC1CCNCC1 [ORY-LSD1, N-((1R,2S)-2-(2-fluorophenyl)cyclopropyl)piperidin-4-amine, reference compound] |  |  |  |  |  |  |  |  |  |  |  |  |  |  |  |  |  | clear tendency for improvement
